These results are taken from patent EP0074599A1, “5,6-cis-Carbapenem derivatives, their production and use” (Takeda Chemical Industries, Ltd., priority 1981, dated 1983).

Common to all, as to test: Minimal Inhibitory Concentration (MIC), agar dilution method
What all share (assay type): cell-based
Holding throughout (set-up): unit not given here
Background: In agar dilution, organisms are placed on agar that contains the substance at set levels.

The subject of one experiment is P. morganii IFO 3168. As to conditions: Test Microorganism (13) P. morganii IFO 3168; Trypticase soy agar, 37°C for 18 hours. On the procedure: (§1) Minimal Inhibitory Concentration (MIC)
(§2) The Minimal Inhibitory Concentrations of the tested compounds were determined according to the agar dilution method. Namely, 1.0 ml each of aqueous solution of the tested compounds diluted by serial dilutions was poured into test petri dishes, subsequently 9.0 ml each of Trypticase soy agar was poured into the dishes and mixed. On each of the mixed agar plates, one loopful of bacterial suspension (about 10^8 CFU/ml) of test microorganism was streaked.
(§3) After the incubation at 37°C for 18 hours, the lowest concentration of the tested compounds in the medium which caused apparently complete inhibition of growth of the test microorganism was taken to be minimal inhibitory concentration.
(§4) • (1) S. aureus FDA 209P • (2) S. aureus 308 A-1 • (3) S. aureus 1840 • (4) E. coli NIHJ JC-2 • (5) E. coli 0-111 • (6) E. coli T-7 • (7) C. freundii IFO 12681 • (8) K. pneumoniae DT • (9) E. cloacae IFO 12937 • (10) S. marcescens IFO 12648 • (11) P. vulgaris IFO 3988 • (12) P.-mirabilis IFO 3849 • (13) P. morganii IFO 3168 • (14) P. aeruginosa IFO 3455 • (15) P. aeruginosa U 31 • (16) A. calcoaceticus IFO 13006

In another experiment the test system is K. pneumoniae DT. The conditions noted are these: Test Microorganism (8) K. pneumoniae DT; Trypticase soy agar, 37°C for 18 hours. On the procedure: as §1, §2, §3, §4
The test system of another experiment is E. coli T-7. The conditions noted are these: Test Microorganism (6) E. coli T-7; Trypticase soy agar, 37°C for 18 hours. On the procedure: as §1, §2, §3, §4
The test system of a further experiment is S. marcescens IFO 12648. The conditions noted are these: Test Microorganism (10) S. marcescens IFO 12648; Trypticase soy agar, 37°C for 18 hours. The procedure: as §1, §2, §3, §4
The subject of the next experiment is P. aeruginosa IFO 3455. As to conditions: Test Microorganism (14) P. aeruginosa IFO 3455; Trypticase soy agar, 37°C for 18 hours. On the procedure: as §1, §2, §3, §4
The subject of the next experiment is E. coli NIHJ JC-2. The conditions noted are these: Test Microorganism (4) E. coli NIHJ JC-2; Trypticase soy agar, 37°C for 18 hours. The procedure: as §1, §2, §3, §4
In a further experiment the test system is P. aeruginosa U 31. The conditions noted are these: Test Microorganism (15) P. aeruginosa U 31; Trypticase soy agar, 37°C for 18 hours. On the procedure:
as §1, §2, §3, §4

For experiment [1], the system named is A. calcoaceticus IFO 13006. The conditions noted are these: Test Microorganism (16) A. calcoaceticus IFO 13006; Trypticase soy agar, 37°C for 18 hours. On the procedure: as §1, §2, §3, §4
The next experiment relates to E. cloacae IFO 12937. As to conditions: Test Microorganism (9) E. cloacae IFO 12937; Trypticase soy agar, 37°C for 18 hours. On the procedure:
as §1, §2, §3, §4

Another experiment has as its system S. aureus 308 A-1. As to conditions: Test Microorganism (2) S. aureus 308 A-1; Trypticase soy agar, 37°C for 18 hours. The procedure: as §1, §2, §3, §4
A further experiment deals with P. vulgaris IFO 3988. The conditions noted are these: Test Microorganism (11) P. vulgaris IFO 3988; Trypticase soy agar, 37°C for 18 hours. The procedure:
as §1, §2, §3, §4

In the next experiment the test system is C. freundii IFO 12681. As to conditions: Test Microorganism (7) C. freundii IFO 12681; Trypticase soy agar, 37°C for 18 hours. The procedure:
as §1, §2, §3, §4

The next experiment concerns E. coli 0-111. The conditions noted are these: Test Microorganism (5) E. coli 0-111; Trypticase soy agar, 37°C for 18 hours. On the procedure: as §1, §2, §3, §4
The test system of another experiment is P.-mirabilis IFO 3849. The conditions noted are these: Test Microorganism (12) P.-mirabilis IFO 3849; Trypticase soy agar, 37°C for 18 hours. The procedure:
as §1, §2, §3, §4

Another experiment concerns S. aureus 1840. The conditions noted are these: Test Microorganism (3) S. aureus 1840; Trypticase soy agar, 37°C for 18 hours. On the procedure:
as §1, §2, §3, §4

In another experiment the test system is S. aureus FDA 209P. The conditions noted are these: Test Microorganism (1) S. aureus FDA 209P; Trypticase soy agar, 37°C for 18 hours. The procedure: as §1, §2, §3, §4

As to `CC(C)(O)[C@@H]1C(=O)N2C(C(=O)O)=C(SCCN3CCCCC3)C[C@H]12` [Example 51, 5,6-cis-3-(2-Piperidinoethylthio)-6-(1-hydroxy-1-methylethyl)-7-oxo-1-azabicyclo[3.2.0]hept-2-ene-carboxylic acid], the “Minimal Inhibitory Concentration (MIC)” value is recorded as 25 with P. morganii IFO 3168; 6.25 with K. pneumoniae DT; 0.78 in the experiment with E. coli T-7; 6.25 in the experiment with S. marcescens IFO 12648; 50 with P. aeruginosa IFO 3455; 0.78 in the experiment on E. coli NIHJ JC-2. The “Minimal Inhibitory Concentration (MIC)” value with P. aeruginosa U 31 is on record as greater than 100; in [1], 25; in the experiment on E. cloacae IFO 12937 it was 6.25; in the experiment on S. aureus 308 A-1, 0.39; in the experiment on P. vulgaris IFO 3988, 25; in the experiment on C. freundii IFO 12681, 3.13. The “Minimal Inhibitory Concentration (MIC)” value with E. coli 0-111 was 0.39; in the experiment with P.-mirabilis IFO 3849, 25; in the experiment on S. aureus 1840, 0.78; in the experiment with S. aureus FDA 209P it was 0.2.
As for `CC(C)(O)[C@@H]1C(=O)N2C(C(=O)O)=C(Sc3cccnn3)C[C@H]12` [Example 20, Sodium 5,6-cis-3-(3-pyridazinylthio)-6-(l-hydroxy-l-methylethyl)-7-oxo-1-azabicyclo[3.2.0]hept-2-ene-2-carboxylate], the “Minimal Inhibitory Concentration (MIC)” value is recorded as 3.13 in the experiment with P. morganii IFO 3168; 0.78 in the experiment with K. pneumoniae DT; 3.13 in the experiment on E. coli T-7; 1.56 with S. marcescens IFO 12648; 50 in the experiment on P. aeruginosa IFO 3455; 0.78 with E. coli NIHJ JC-2. Besides, the “Minimal Inhibitory Concentration (MIC)” value in the experiment with P. aeruginosa U 31 is listed as greater than 100; in experiment [1], 12.5; with E. cloacae IFO 12937, 1.56; in the experiment with S. aureus 308 A-1, 0.39; in the experiment with P. vulgaris IFO 3988 it was 3.13; in the experiment on C. freundii IFO 12681, 0.78. Also, the “Minimal Inhibitory Concentration (MIC)” value was 0.2 in the experiment with E. coli 0-111, 3.13 in the experiment on P.-mirabilis IFO 3849, 0.78 in the experiment with S. aureus 1840 and 0.39 in the experiment on S. aureus FDA 209P.
